For 30 molecules, IC50 results are on record in patent US20260242372A1, “NOVEL IMIDAZOPYRIDINE AND PYRAZOLOPYRIDINE SULFONAMIDE DERIVATIVES” (Hoffmann-La Roche Inc., priority 2022, published 2026).

SMILES strings stand for the structures.

Sequence of human GPR17 short isoform (Q13304 29-367): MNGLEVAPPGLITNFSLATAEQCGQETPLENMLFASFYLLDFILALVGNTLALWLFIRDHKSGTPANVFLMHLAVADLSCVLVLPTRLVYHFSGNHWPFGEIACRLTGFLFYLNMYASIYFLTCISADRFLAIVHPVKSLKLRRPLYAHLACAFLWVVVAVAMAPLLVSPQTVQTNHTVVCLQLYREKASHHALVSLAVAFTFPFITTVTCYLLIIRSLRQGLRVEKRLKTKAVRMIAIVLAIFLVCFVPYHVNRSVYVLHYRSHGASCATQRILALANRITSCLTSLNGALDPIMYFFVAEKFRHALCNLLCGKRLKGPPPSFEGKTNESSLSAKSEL

In the test the target is human GPR17 short isoform (Homo sapiens, UniProt Q13304). In words: GPR17 cAMP assay (hGPR17 cAMP, TR-FRET, antagonist mode). The test is classed as cell-based. To be noted: CHO-K1 cells stably expressing human GPR17 short isoform; EC80 of agonist MDL29,951; forskolin 15 μM; 30 min at room temperature. The method, then:
CHO-K1 cells stably expressing vector containing untagged human GPR17 short isoform (Roche) were cultured at 37° C./5% CO2 in DMEM (Dulbecco's Modified Eagle Medium): F-12 (1:1) supplemented with 10% foetal bovine serum and 400 μg/ml Geneticin.
Changes in intracellular cyclic adenosine monophosphate (cAMP) levels were quantified using the Nano-TRF Detection Assay kit (Roche Diagnostics, Cat. No. 05214386001). This assay allows for direct cAMP quantification in a homogeneous solution. CAMP is detected based on time-resolved fluorescence energy transfer (TR-FRET) and competitive binding of ruthenylated cAMP and endogenous cAMP to an anti-cAMP monoclonal antibody labeled with AlexaFluor-700. The Ruthenium complex serves as the FRET donor and transfers energy to AlexaFluor-700. The FRET signal is inversely proportional to the CAMP concentration.
CHO-GPR17S cells were detached with Accutase and resuspended in assay buffer consisting of Hank's Balanced Salt Solution (HBSS), 10 mM HEPES (4-(2-hydroxyethyl) piperazine-1-ethanesulfonic acid solution) and 0.1% bovine serum albumin (pH 7.4). The cells were seeded in black 384-well plates (Corning) at a density of 10′000 cells/20 μl assay buffer until the addition of compounds.
Test antagonist compounds were serially diluted in dimethyl sulfoxide (DMSO) and spotted in 384-well plates. The compounds were then diluted in HBSS buffer supplemented with an EC80 concentration of MDL29,951 (3-(2-Carboxy-4,6-dichloroindol-3-yl) propionic acid) (GPR17 agonist) plus 3-Isobutyl-1-methylxanthine (IBMX) (0.5 mM final concentration) and added to the cells at room temperature. Forskolin (15 μM final concentration) was added 5 minutes after the test compounds and the cells were incubated at room temperature for 30 minutes. The assay was stopped by adding cAMP detection mix (containing detergents for cell lysis) for 90 minutes at room temperature.
Cellular cAMP was measured using a Paradigm reader (Molecular Devices). The raw data was used to calculate the FRET signal based on the assay's P-factor as per cAMP kit instructions. The data was normalized to the maximal activity of a reference antagonist and dose response curves were fitted to the percent activity of the test compounds using a sigmoidal dose response model (Genedata Screener).
(Cyclic AMP is a second messenger, typically raised through Gs and lowered through Gi signalling.)
The molecule `COc1nc(OCC(F)F)c(F)cc1NS(=O)(=O)c1cnc2c(C#N)c(C)ccn12` [Example 27, 8-cyano-N-[6-(2,2-difluoroethoxy)-5-fluoro-2-methoxy-3-pyridyl]-7-methyl-imidazo[1,2-a]pyridine-3-sulfonamide] returned an IC50 of 31 nM.
The molecule `COc1nc(OC(F)F)c(F)cc1NS(=O)(=O)c1cnc2nc(C3CC3)ccn12` [Example 28, 7-cyclopropyl-N-[6-(difluoromethoxy)-5-fluoro-2-methoxy-3-pyridyl]imidazo[1,2-a]pyrimidine-3-sulfonamide] returned an IC50 of 31 nM.
For `COc1ccn2c(S(=O)(=O)Nc3cc(F)c(OC(F)F)nc3OC)cnc2c1` [Example 29, N-[6-(difluoromethoxy)-5-fluoro-2-methoxy-3-pyridyl]-7-methoxy-imidazo[1,2-a]pyridine-3-sulfonamide] the value was 33 nM; for `COc1nc(OCC(F)F)c(F)cc1NS(=O)(=O)c1cnc2n1CCC(C)C2C` (stereo not drawn) [Example 30, N-[6-(2,2-difluoroethoxy)-5-fluoro-2-methoxy-3-pyridyl]-7,8-dimethyl-5,6,7,8-tetrahydroimidazo[1,2-a]pyridine-3-sulfonamide], 35 nM.
For `COc1nc(OCC(F)F)c(F)cc1NS(=O)(=O)c1cnc2cc(C(F)(F)F)ccn12` [Example 31, N-[6-(2,2-difluoroethoxy)-5-fluoro-2-methoxy-3-pyridyl]-7-(trifluoromethyl)imidazo[1,2-a]pyridine-3-sulfonamide] the value was 38 nM.
`COc1c(C)ccn2c(S(=O)(=O)Nc3cc(F)c(CC#N)cc3F)cnc12` [Example 32, N-[4-(cyanomethyl)-2,5-difluoro-phenyl]-8-methoxy-7-methyl-imidazo[1,2-a]pyridine-3-sulfonamide]: the IC50 worked out at 40 nM.
For `COc1nc(OCC(F)F)c(F)cc1NS(=O)(=O)c1cnc2c(C#N)c(C3CC3)ccn12` [Example 33, 8-cyano-7-cyclopropyl-N-[6-(2,2-difluoroethoxy)-5-fluoro-2-methoxy-3-pyridyl]imidazo[1,2-a]pyridine-3-sulfonamide] the value was 42 nM.
For `N#CCc1cc(F)c(NS(=O)(=O)c2cnc3cc(Br)ccn23)cc1F` [Example 34, 7-bromo-N-[4-(cyanomethyl)-2,5-difluoro-phenyl]imidazo[1,2-a]pyridine-3-sulfonamide], the IC50 was determined as 45 nM.
For `COc1ccn2c(S(=O)(=O)Nc3nc(OC)c(CC#N)cc3F)cnc2c1` [Example 35, N-[5-(cyanomethyl)-3-fluoro-6-methoxy-2-pyridyl]-7-methoxy-imidazo[1,2-a]pyridine-3-sulfonamide] the value was 46 nM; for `COc1nc(NS(=O)(=O)c2cnc3nc(C4CC4)ccn23)c(F)cc1CC(F)F` [Example 36, 7-cyclopropyl-N-[5-(2,2-difluoroethyl)-3-fluoro-6-methoxy-2-pyridyl]imidazo[1,2-a]pyrimidine-3-sulfonamide], 52 nM; for `COc1ccn2c(S(=O)(=O)Nc3cc(F)c(OCC(F)F)nc3OC)cnc2n1` [Example 37, N-[6-(2,2-difluoroethoxy)-5-fluoro-2-methoxy-3-pyridyl]-7-methoxy-imidazo[1,2-a]pyrimidine-3-sulfonamide], 56 nM.
For `O=S(=O)(Nc1cc(F)c(OC(F)F)nc1OC(F)F)c1cnc2cc(Cl)ccn12` [Example 38, N-[2,6-bis(difluoromethoxy)-5-fluoro-3-pyridyl]-7-chloro-imidazo[1,2-a]pyridine-3-sulfonamide] the value was 57 nM; for `COc1nc(NS(=O)(=O)c2cnc3cc(Cl)ccn23)c(F)cc1OC(F)F` [Example 40, 7-chloro-N-[5-(difluoromethoxy)-3-fluoro-6-methoxy-2-pyridyl]imidazo[1,2-a]pyridine-3-sulfonamide], 64 nM.
For `COc1nc(OCC(F)F)c(F)cc1NS(=O)(=O)c1cnc2n1CCC(C(F)(F)F)C2` (stereo not drawn) [Example 41, N-[6-(2,2-difluoroethoxy)-5-fluoro-2-methoxy-3-pyridyl]-7-(trifluoromethyl)-5,6,7,8-tetrahydroimidazo[1,2-a]pyridine-3-sulfonamide] the value was 66 nM.
In turn, `COc1nc(OCC(F)F)c(F)cc1NS(=O)(=O)c1cnc2nc(Cl)ccn12` [Example 42, 7-chloro-N-[6-(2,2-difluoroethoxy)-5-fluoro-2-methoxy-3-pyridyl]imidazo[1,2-a]pyrimidine-3-sulfonamide] displayed an IC50 of 72 nM.
`COc1nc(OC(F)F)c(F)cc1NS(=O)(=O)c1cnc2c(C#N)c(C)ccn12` [Example 43, 8-cyano-N-[6-(difluoromethoxy)-5-fluoro-2-methoxy-3-pyridyl]-7-methyl-imidazo[1,2-a]pyridine-3-sulfonamide] displayed an IC50 of 75 nM.
For `COc1nc(NS(=O)(=O)c2cnc3cc(Cl)ccn23)c(F)cc1C1CC1` [Example 44, 7-chloro-N-(5-cyclopropyl-3-fluoro-6-methoxy-2-pyridyl)imidazo[1,2-a]pyridine-3-sulfonamide] the value was 76 nM; for `COc1nc(OCC(F)F)c(F)cc1NS(=O)(=O)c1cnc2n1CCC(C)(C)C2` [Example 45, N-[6-(2,2-difluoroethoxy)-5-fluoro-2-methoxy-3-pyridyl]-7,7-dimethyl-6,8-dihydro-5H-imidazo[1,2-a]pyridine-3-sulfonamide], 76 nM; for `COc1nc(NS(=O)(=O)c2cnc3cc(Br)ccn23)nc(OC)c1Br` [Example 46, 7-bromo-N-(5-bromo-4,6-dimethoxy-pyrimidin-2-yl)imidazo[1,2-a]pyridine-3-sulfonamide], 82 nM.
For `COc1nc(NS(=O)(=O)c2cnc3cc(Br)ccn23)c(F)cc1OCCF` [Example 47, 7-bromo-N-[3-fluoro-5-(2-fluoroethoxy)-6-methoxy-2-pyridyl]imidazo[1,2-a]pyridine-3-sulfonamide] the value was 83 nM.
For `COc1nc(OCC(F)F)c(F)cc1NS(=O)(=O)c1cnc2nc(C)ccn12` [Example 48, N-[6-(2,2-difluoroethoxy)-5-fluoro-2-methoxy-3-pyridyl]-7-methyl-imidazo[1,2-a]pyrimidine-3-sulfonamide] the value was 85 nM; for `COc1nc(NS(=O)(=O)c2cnc3nc(C4CC4)ccn23)c(F)cc1OCC(F)F` [Example 49, 7-cyclopropyl-N-[5-(2,2-difluoroethoxy)-3-fluoro-6-methoxy-2-pyridyl]imidazo[1,2-a]pyrimidine-3-sulfonamide], 89 nM.
`COc1nc(OCC(F)F)c(F)cc1NS(=O)(=O)c1cnc2n1CCCC2C` (stereo not drawn) [Example 50, N-[6-(2,2-difluoroethoxy)-5-fluoro-2-methoxy-3-pyridyl]-8-methyl-5,6,7,8-tetrahydroimidazo[1,2-a]pyridine-3-sulfonamide]: the IC50 stood at 98 nM.
`COc1nc(NS(=O)(=O)c2cnc3cc(Cl)ccn23)c(F)cc1OCC(F)F` [Example 51, 7-chloro-N-[5-(2,2-difluoroethoxy)-3-fluoro-6-methoxy-2-pyridyl]imidazo[1,2-a]pyridine-3-sulfonamide] showed an IC50 of 99 nM.
The result for `COc1nc(OCC(F)F)c(F)cc1NS(=O)(=O)c1cnc2c(C#N)c(Cl)ccn12` [Example 52, 7-chloro-8-cyano-N-[6-(2,2-difluoroethoxy)-5-fluoro-2-methoxy-3-pyridyl]imidazo[1,2-a]pyridine-3-sulfonamide] reads 99 nM.
For `COc1nc(OCC(F)F)c(F)cc1NS(=O)(=O)c1cnc2n1CCC(C)O2` (stereo not drawn) [Example 53, N-[6-(2,2-difluoroethoxy)-5-fluoro-2-methoxy-3-pyridyl]-7-methyl-6,7-dihydro-5H-imidazo[2,1-b][1,3]oxazine-3-sulfonamide] the value was 101 nM; for `COc1nc(NS(=O)(=O)c2cnc3cc(C)ccn23)nc(OC)c1C` [Example 54, N-(4,6-dimethoxy-5-methyl-pyrimidin-2-yl)-7-methyl-imidazo[1,2-a]pyridine-3-sulfonamide], 112 nM.
Regarding `COc1ccn2c(S(=O)(=O)Nc3cc(F)c(CC#N)cc3F)cnc2c1` [Example 55, N-[4-(cyanomethyl)-2,5-difluoro-phenyl]-7-methoxy-imidazo[1,2-a]pyridine-3-sulfonamide], the IC50 stood at 116 nM.
The result for `O=S(=O)(Nc1cc(F)c(OC(F)F)nc1OC(F)F)c1cnc2nc(C3CC3)ccn12` [Example 56, N-[2,6-bis(difluoromethoxy)-5-fluoro-3-pyridyl]-7-cyclopropyl-imidazo[1,2-a]pyrimidine-3-sulfonamide] reads 132 nM.
The result for `COc1c(C)ccn2c(S(=O)(=O)Nc3cc(F)c(Br)cc3F)cnc12` [Example 57, N-(4-bromo-2,5-difluoro-phenyl)-8-methoxy-7-methyl-imidazo[1,2-a]pyridine-3-sulfonamide] reads 137 nM.

For orientation: IC50 means the concentration that inhibits the measured activity by half. A high value points to lower potency.
